Experimental data reported in patent US8440614B2, “Polymer microspheres/nanospheres and encapsulating therapeutic proteins therein” (priority 2000, dated 2013).

How the values were obtained:
[1] = Antigenicity by sandwich-type capture ELISA after SCCNC treatment; type: binding
Protocol: Experiments were performed to encapsulate tetanus toxoid (TT) and diphtheria toxoid (DT) vaccine antigens in 50:50 PLGA polymer microspheres formed by SCCNC carbon dioxide and propane. In these tests, DT and TT were each separately treated with supercritical carbon dioxide with 10% (v/v) cosolvent ethanol, and near-critical propane in the presence of PLGA. The pressure and temperature were around 3,000 psig and 30-35° C. respectively. The protein and antigenicity activities were performed by micro BCA assay and a sandwich-type capture ELISA [Gupta, R. K., Siber, G. R., Alonso, M. J. and Langer, R., in Modern Approaches To New Vaccines Including Prevention of AIDS. Ed. by Ginsberg, H. S., Brown, F., Chanock, R. M. and Lerner, R. A. Cold Spring Harbor Laboratory, Press, 1993] assay.

[2] = test system: chronic diabetic BB/W or male rats; assay: In vivo release of insulin: glucose concentration in diabetic rats; details: for Effect on glucose levels (in words): bled 0.5 to 16 hrs after treatment
Protocol: A preliminary study with SCCNC polymer nanoencapsulated insulin was conducted in diabetic rats. Three groups of four chronic diabetic BB/W or male rats were used to evaluate efficacy on nanoencapsulated insulin (MS-29). One group [A] was given 2 ml of the test formulation (MS-29) using the standard gavage method. The second group [B] received oral non-encapsulated insulin, administered by gavage at the concentration based on the animals' day of diabetes onset. A third group [C] received injected insulin (PZI, Eli Lilly) therapy at the dose consistent with their day of onset of diabetes. The animals were bled prior to treatment and at 0.5, 1, 2, 4, 8, and 16 hrs after treatment.

[3] = aqueous protein; cited from earlier work
[4] = treated with SCCNC carbon dioxide/ethanol mixtures

Row | Substance | ELISA (Lf/mL), antigenicity ([1]; toxoid in PLGA microspheres formed by different SCCNC, around 3,000 psig, 30-35° C.) [Lf/mL] | Percent Change in Glucose Concentration ([2]; 0.5 hr post-treatment) | Percent Change in Glucose Concentration ([2]; 1 hr post-treatment) [%] | Percent Change in Glucose Concentration ([2]; 2 hr post-treatment) [%] | Percent Change in Glucose Concentration ([2]; 4 hr post-treatment) | Percent Change in Glucose Concentration ([2]; 8 hr post-treatment) | Percent Change in Glucose Concentration ([2]; 16 hr post-treatment) | Effect on glucose levels (in words) [2] | Antigenicity after treatment (in words) [1, 4] | Antigenicity after treatment (in words) ([1]; treated with near-critical propane) | pH levels at which the toxoid will denature [3]
1 | 4: Tetanus toxoid, Control [Sample 4] | 9.0 |  |  |  |  |  |  |  |  |  | 
2 | Injected Insulin: injected insulin (PZI, Eli Lilly), positive control |  | −47.4% | −62.7 | −71.8 | −37.9% | −48.5% | −37.6% | statistical decrease in glucose levels at all times measured post treatment |  |  | 
3 | Oral Insulin: oral non-encapsulated insulin, administered by gavage |  | +2.9% | −4.6 | −24.4 | +2.8% | +7.5% | +47.3% | only showed a statistical decrease in the level of glucose at one time point, 2 hours |  |  | 
4 | diphtheria toxoid |  |  |  |  |  |  |  |  | lost most of their antigenicity | did little damage | below 5.0
5 | tetanus toxoid: tetanus toxoid (TT) vaccine antigen |  |  |  |  |  |  |  |  | lost most of their antigenicity |  | below 5.0
